By MIC is commonly meant the smallest concentration in the dilution series that meets the test's criterion for growth inhibition. As usually defined, the T/C is the ratio of treated to control.

The structures appear in SMILES notation. In brackets after ≈: the same amount, converted by molar mass. Counter-ions that a name gives are not always drawn. Like-named read-outs stand apart in the source and are kept apart here. A value given as a limit tells only on which side of the number the result lay.

The test system of data set [1] is Staphylococcus aureus (S. aureus FDA209P). Briefly: Sensitivity Test 1: antibacterial activity (MIC) by micro-dilution method. The format is cell-based. The protocol:
(§1) Test compounds were initially dissolved in dimethylsulfoxide. Antibacterial activities (MICs) of the same compounds were determined by the micro-dilution method as recommended by the Japanese Society of Chemotherapy.
(§2) Staphylococcus aureus (S. aureus FDA209P) was used as the test organism. The bacterial cells were grown overnight at 35° C. on Mueller-Hinton agar (MHA) plates. The bacterial cells were then suspended in sterile saline and adjusted to the turbidity of a 0.5 McFarland standard. The inoculum was prepared by 10-fold dilution of this suspension. Approximately 0.005 mL aliquots of the inoculum prepared above were subsequently inoculated into Cation-adjusted Mueller-Hinton broth (CAMHB, 100 μL/well) including the test compounds for overnight incubation at 35° C.
Background: Broth dilution looks for growth in wells or tubes with falling amounts of substance.

Data set [2] concerns Methicillin-resistant Staphylococcus aureus (S. aureus F-3095). Briefly: Sensitivity Test 2: antibacterial activity (MIC) by micro-dilution method. The format is cell-based. The protocol:
as §1, §2
Methicillin-resistant Staphylococcus aureus (S. aureus F-3095) was used as the test organism. Antibacterial activities (MICs) were determined in the same manner as in Test Example 1.

The subject of a further data set is Vero cells. Briefly: Cytotoxicity Test (XTT) on Vero cells. The format is cell-based. As to conditions: 51.2 μg/mL of test compound, 3 days at 37° C., XTT absorbance ratio of treated to untreated well. The protocol:
Test compounds were initially dissolved in dimethylsulfoxide. […]. After incubation, absorbance was read at 450 nm and 655 nm in a spectrophotometric microplate reader. The values were expressed as the ratio between the value for the well treated with 51.2 μg/mL of each test compound and the value for the well untreated with the test compound (T/C).

The test system of the next data set is S. aureus Smith. Kind of data set: Infection Test: mice infected intraperitoneally with S. aureus Smith. The format is in vivo. The conditions noted are these: ICR mice, 5 per group; S. aureus Smith i.p.; 10 mg/kg subcutaneously once at 1 hour after infection; survivors recorded 3 days after infection. The protocol:
S. aureus Smith which was grown overnight at 37° C. on Mueller-Hinton agar (MHA) plates were suspended to give a final concentration of 10^9 CFU/mL. The inoculum was prepared by diluting this suspension 10-fold in 1/15 mol/L phosphate buffer (pH 7) containing 5.6% mucin. ICR mice (4 to 4.5 weeks of age, male, 5 mice per group) were intraperitoneally administered with the inoculum (approximately 2×10^7 CFU per mice) to induce infection.
After dissolving the test compounds in 0.1 mol/L hydrochloric acid, 20% 2-hydroxypropyl-β-cyclodextrin (HP-β-CD) or a mixture of 20% HP-β-CD and 0.1 mol/L hydrochloric acid at a proportion of 1:1 was added to give a final concentration of 1 mg/mL. Each of the test compound solutions (10 mg/kg) was subcutaneously administered once to a group of mice at 1 hour after infection. The control group was administered with 10% HP-β-CD. The mice were observed daily and the number of surviving mice in each group was recorded 3 days after infection.

[3] abbreviates: S. aureus FDA209P, CAMHB, overnight incubation at 35° C., lowest concentration with virtually no growth, read-out: MIC.
Setting [4] is: Methicillin-resistant S. aureus F-3095, same manner as in Test Example 1, read-out: MIC.

`COc1ccc2ncc(=O)n(CCC3(O)CCC(NCc4cc5c(cn4)OCCO5)CC3)c2c1` (single isomer, unassigned) [389(B), 1-(2-(4-((2,3-dihydro(1,4)dioxino(2,3-c)pyridin-7-ylmethyl)amino)-1-hydroxycyclohexyl)ethyl)-7-methoxyquinoxalin-2(1H)-one]: the MIC stood at 0.0156 µg/mL (≈ 0.0334 µM) in data set [1] (setting [3]) and 0.0625 µg/mL (≈ 0.134 µM) in data set [2] (setting [4]). Further, the T/C with Vero cells is listed as above 50%.

With `COc1ccc2c(C)cc(=O)n(CCCC3(C(=O)O)CCN(CCSc4cccs4)CC3)c2c1` [Example 7, 4-(3-(7-methoxy-4-methyl-2-oxoquinolin-1(2H)-yl)propyl)-1-(2-(2-thienylthio)ethyl)piperidine-4-carboxylic acid], in data set [1] (setting [3]), the MIC is 0.25 µg/mL (≈ 0.499 µM). Besides, in the data set on Vero cells, the T/C was above 50%.

Take `CNC(=O)c1cc(=O)n(CCN2CCC(NCc3ccc4c(c3)OCCO4)CC2)c2cc(OC)ccc12` [Example 25, 1-(2-(4-((2,3-dihydro-1,4-benzodioxin-6-ylmethyl)amino)piperidin-1-yl)ethyl)-7-methoxy-N-methyl-2-oxo-1,2-dihydroquinoline-4-carboxamide]: the figures for the MIC in data set [1] (setting [3]) and in data set [2] (setting [4]) were 0.0625 µg/mL (≈ 0.123 µM) and 0.125 µg/mL (≈ 0.247 µM), respectively. Also, the “Number of surviving mice” value with S. aureus Smith is 5. In addition, the T/C with Vero cells is recorded as above 50%.

`O=c1ccc2ccccc2n1CCN1CCC(NCc2ccc3c(c2)OCCO3)CC1` [Example 63, 1-(2-(4-(2,3-dihydro-1,4-benzodioxin-6-ylmethyl)amino)piperidin-1-yl)ethyl)-quinolin-2(1H)one hydrochloride]: the MIC in data set [1] (setting [3]) is 0.0625 µg/mL. The T/C in the data set with Vero cells is above 50%.

Regarding `COc1ccc2ncc(=O)n(CCN3CCC(NCc4ccc5c(c4)NC(=O)CO5)CC3)c2c1` [Example 90, 6-(((1-(2-(7-methoxy-2-oxoquinoxaline-1-(2H)-yl)ethyl)piperidin-4-yl)amino)methyl)-2H-1,4-benzooxazine-3(4H)-one], the MIC was 0.0313 µg/mL (≈ 0.0675 µM) in data set [1] (setting [3]) and 0.0625 µg/mL (≈ 0.135 µM) in data set [2] (setting [4]). The “Number of surviving mice” value in the data set on S. aureus Smith is listed as 5. Besides, the T/C in the data set with Vero cells is on record as above 50%.

As for `COCCNC(=O)c1cc(=O)n(CCN2CCC(NCc3ccc4c(c3)OCCO4)CC2)c2cc(OC)ccc12` [Example 141, 1-(2-(4-((2,3-dihydro-1,4-benzodioxin-6-ylmethyl)amino)piperidin-1-yl)ethyl)-7-methoxy-N-(2-methoxyethyl)-2-oxo-1,2-dihydroquinoline-4-carboxamide hydrochloride], the MIC in data set [1] (FDA209P) was determined as 0.125 µg/mL; in data set [2], 0.25 µg/mL. The “Number of surviving mice” value with S. aureus Smith is recorded as 5. Also, the T/C in the data set on Vero cells was above 50%.

In the case of `Nc1cccc2c1ccc(=O)n2CCN1CCC(NCc2ccc3c(c2)OCCO3)CC1` [Example 263, 1-(2-(4-((2,3-dihydro-1,4-benzodioxin-6-ylmethyl)amino)piperidin-1-yl)ethyl)-5-aminoquinolin-2(1H)-one hydrochloride], the MIC in data set [1] (FDA209P) was found to be 0.125 µg/mL; in data set [2] it was 0.25 µg/mL. The “Number of surviving mice” value in the data set with S. aureus Smith was 5. For the same molecule, the T/C in the data set on Vero cells is given as above 50%.

`CNC(=O)c1cc(=O)n(CCN2CCC(NCc3ccc(C)c(F)c3)CC2)c2cc(OC)ccc12` [Example 340, 1-(2-(4-(3-fluoro-4-methylbenzylamino)piperidin-1-yl)ethyl)-7-methoxy-N-methyl-2-oxo-1,2-dihydroquinoline-4-carboxamide hydrochloride]: the values for the minimum inhibitory concentration (MIC) in data set [1] (FDA209P) and in data set [2] were 0.0313 µg/mL and 0.0625 µg/mL, respectively. For the same molecule, the “Number of surviving mice” value in the data set on S. aureus Smith was determined as 5. The T/C in the data set with Vero cells was above 50%.

Take `CNC(=O)c1cc(=O)n(CCN2CCC(NCc3cc(-c4cccs4)on3)CC2)c2cc(OC)ccc12` [Example 341, 7-methoxy-N-methyl-2-oxo-1-(2-(4-((5-(thiophen-2-yl)isoxazol-3-yl)methylamino)piperidin-1-yl)ethyl)-1,2-dihydroquinoline-4-carboxamide hydrochloride]: the MIC turned out to be 0.0313 µg/mL in data set [1] (FDA209P) and 0.0625 µg/mL in data set [2]. In addition, the “Number of surviving mice” value in the data set on S. aureus Smith is 5. Also, the T/C in the data set on Vero cells is reported as above 50%.

With `O=c1cnc2ccc(F)cc2n1CCN1CCC(NCc2cc3c(cn2)OCCO3)CC1` [Example 352, 1-(2-(4-((2,3-dihydro-1,4-dioxino[2,3-c]pyridin-7-yl)methylamino)piperidin-1-yl)ethyl)-7-fluoroquinoxalin-2(1H)-one hydrochloride], the minimum inhibitory concentration (MIC) in data set [1] (FDA209P) turned out to be 0.0156 µg/mL; in data set [2], 0.0313 µg/mL. For the same molecule, the “Number of surviving mice” value in the data set on S. aureus Smith is on record as 5. For the same molecule, in the data set with Vero cells, the T/C is recorded as above 50%.

For the molecule `COc1ccc2ncc(=O)n(CCN3CCC(NCc4cc5c(cn4)OCCO5)CC3)c2c1` [Example 359, 1-(2-(4-((2,3-dihydro-1,4-dioxino[2,3-c]pyridin-7-yl)methylamino)piperidin-1-yl)ethyl)-7-methoxy-quinoxalin-2(1H)-one hydrochloride], the MIC in data set [1] (FDA209P) and in data set [2] was 0.0313 µg/mL each time. The “Number of surviving mice” value in the data set on S. aureus Smith is 5. The T/C with Vero cells is recorded as above 50%.

For `Cc1ccc(CNC2CCN(CCn3c(=O)cnc4ccc(F)cc43)CC2)cc1F` [Example 367, 1-(2-(4-((3-fluoro-4-methylbenzyl)amino)piperidin-1-yl)ethyl)-7-fluoroquinoxalin-2(1H)-one hydrochloride], the MIC in data set [1] (FDA209P) and in data set [2] was 0.0156 µg/mL in each case. Moreover, the “Number of surviving mice” value in the data set with S. aureus Smith turned out to be 5. Besides, the T/C with Vero cells is recorded as above 50%.

As for `O=C1CSc2ccc(CNC3CCN(CCn4c(=O)cnc5ccc(F)cc54)CC3)nc2N1` [Example 369, 7-fluoro-1-(2-(4-((3-oxo-3,4-dihydro-2H-pyrido[3,2-b][1,4]thiazin-6-yl)methylamino)piperidin-1-yl)ethyl)quinoxalin-2(1H)-one hydrochloride], the MIC in data set [1] (FDA209P) and in data set [2] was 0.0313 µg/mL throughout. In the data set on S. aureus Smith, the “Number of surviving mice” value worked out at 5. Also, in the data set on Vero cells, the T/C is reported as above 50%.
